Results published in patent publication US20220348567A1, “NOVEL OXADIAZOLE COMPOUNDS CONTAINING 5- MEMBERED HETEROAROMATIC RING FOR CONTROLLING OR PREVENTING PHYTOPATHOGENIC FUNGI” (PI INDUSTRIES LTD., priority 2019, published 2022).

What was measured:
Assay type in all cases: cell-based
Parastagonospora nodorum = Parastagonospora nodorum (PARANO) microtiter growth inhibition assay, OD600; conditions: 18° C., 15-18 days, read-out: control (growth inhibition by OD600)
Method: Potato dextrose (PDB) liquid medium (Difco) containing a […] (10^5 spores/ml) spore suspension was prepared. For the inhibition assay, each test compound was solved in dimethyl sulfoxide. 100 μl of the test media-solution was added to a 96-well microtiter plate, consequently, the same volume (100 μl) of spore suspension was added to the well making the final test concentrations and the plate was incubated at 18° C. for 15-18 days. The growth inhibition was evaluated by measuring the OD600. Percent inhibition was calculated with the below formula: I=([…])*100 Where T=treatment, C═control, and B=blank

Botrytis cinerea = Botrytis cinerea (gray mold) in vitro radial growth test on potato dextrose agar; conditions: 300 ppm; 7 days, 22° C., 90% relative humidity
Fusarium culmorum = Fusarium culmorum (foot rot of cereals) in vitro radial growth test on potato dextrose agar; conditions: 300 ppm; 7 days, 25° C., 60% relative humidity
Method: Compounds were dissolved in 0.3% dimethyl sulfoxide and then added to potato dextrose agar medium just prior to dispensing it into petri dishes. 5 mL medium with the compound in the desired concentration was dispensed into 60 mm sterile petri-plates. After solidification, each plate was seeded with a 5 mm size mycelial disc taken from the periphery of an actively growing virulent culture plate. Plates were incubated in growth chambers at 25° C. temperature and 60% relative humidity for seven days and then the radial growth was measured and compared to the one of the untreated control.

CS(=O)(=NC(=O)c1ccn(-c2ccc(-c3noc(C(F)(F)F)n3)cc2)c1)c1ccncc1F (stereo not drawn) [Compound 28, N-((3-fluoropyridin-4-yl)(methyl)(oxo)-λ^6-sulfanylidene)-1-(4-(5-(trifluoromethyl)-1,2,4-oxadiazol-3-yl)phenyl)-1H-pyrrole-3-carboxamide]
≥ 70%: inhibition at 300 ppm (Parastagonospora nodorum) | control (radial growth compared to untreated control) (Botrytis cinerea) | control (radial growth compared to untreated control) (Fusarium culmorum)
